Measurements: US20240286998A1, “F[…], ANALOGUES THEREOF, AND METHODS USING SAME” (Saint Joseph's University, priority 2021, published 2024)
Read-outs that look alike come from different tables or passages of the source.

Legend:
[1] = target: Serotonin 5-HT2A (human) (Homo sapiens (Human), UniProt P28223); test: 5-HT2A receptor binding, [3H]-ketanserin competition in membrane fractions; details: 1 nM [3H]-ketanserin, Cheng-Prusoff, N=1-3
[2] = target: 5-HT2A (Homo sapiens (Human), UniProt P28223); test: 5-HT2A Gq-mediated calcium flux functional assay; type: cell-based
[3] = target: 5-HT2B (Homo sapiens (Human), UniProt P41595); test: 5-HT2B Gq-mediated calcium flux functional assay; type: cell-based
Chain of 5-HT2B (P41595 whole entry): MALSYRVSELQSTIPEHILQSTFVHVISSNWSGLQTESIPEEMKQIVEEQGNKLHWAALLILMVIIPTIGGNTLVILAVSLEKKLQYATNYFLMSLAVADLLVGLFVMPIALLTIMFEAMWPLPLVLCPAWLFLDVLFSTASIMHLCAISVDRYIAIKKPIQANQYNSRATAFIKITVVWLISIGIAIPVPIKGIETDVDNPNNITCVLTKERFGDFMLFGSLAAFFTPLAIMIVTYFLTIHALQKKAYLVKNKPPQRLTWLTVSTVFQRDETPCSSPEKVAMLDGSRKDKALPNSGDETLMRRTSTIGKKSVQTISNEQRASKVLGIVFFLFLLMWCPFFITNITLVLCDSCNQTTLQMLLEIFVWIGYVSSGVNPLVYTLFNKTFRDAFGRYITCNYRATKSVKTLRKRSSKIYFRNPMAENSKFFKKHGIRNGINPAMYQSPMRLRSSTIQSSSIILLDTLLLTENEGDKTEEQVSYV

[4] = target: 5-HT2C (Homo sapiens (Human), UniProt P28335); test: 5-HT2C Gq-mediated calcium flux functional assay; type: cell-based; details: for 5-HT2C-Ca2+ FLUX Emax (% 5-HT): IA = Inactive, N=1-3
Chain of 5-HT2C (P28335 whole entry, looked up): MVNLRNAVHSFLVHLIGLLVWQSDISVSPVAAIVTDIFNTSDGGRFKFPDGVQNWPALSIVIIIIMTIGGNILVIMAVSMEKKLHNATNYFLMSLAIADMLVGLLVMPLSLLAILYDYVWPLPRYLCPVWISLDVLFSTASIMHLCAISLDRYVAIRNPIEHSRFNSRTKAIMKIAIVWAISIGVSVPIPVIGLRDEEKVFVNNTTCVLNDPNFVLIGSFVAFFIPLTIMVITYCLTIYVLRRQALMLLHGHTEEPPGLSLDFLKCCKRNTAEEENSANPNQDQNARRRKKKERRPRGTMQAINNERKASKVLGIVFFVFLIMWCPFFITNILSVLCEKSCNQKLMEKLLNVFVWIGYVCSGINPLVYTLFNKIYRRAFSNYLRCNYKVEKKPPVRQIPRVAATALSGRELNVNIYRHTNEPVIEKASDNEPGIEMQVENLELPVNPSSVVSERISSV

CCN(C)CCc1c[nH]c2c(F)cccc12 [Example 7, N-ethyl-2-(7-fluoro-1H-indol-3-yl)-N-methylethan-1-amine]
5-HT2A pKi ± SEM [1]: 6.02

C=CCN(CCc1c[nH]c2ccc(F)cc12)C1CCC1 [Example 14, N-allyl-N-(2-(5-fluoro-1H-indol-3-yl)ethyl)cyclobutanamine]
5-HT2A pKi ± SEM [1]: 6.09

CC(C)N(CC#N)CCc1c[nH]c2ccc(F)cc12 [compound 17, 2-((2-(5-fluoro-1H-indol-3-yl)ethyl)(isopropyl)amino)acetonitrile]
5-HT2A pKi ± SEM [1]: 5.41

CCCN(CC)CCc1c[nH]c2ccc(F)c(F)c12 [compound 21, N-(2-(4,5-difluoro-1H-indol-3-yl)ethyl)-N-ethylpropan-1-amine]
5-HT2A pKi ± SEM [1]: 6.15

C#CCN(CCc1c[nH]c2ccc(F)cc12)C(C)C [compound 34, N-(2-(5-fluoro-1H-indol-3-yl)ethyl)-N-isopropylprop-2-yn-1-amine]
5-HT2A pKi ± SEM [1]: 5.78

C=CCN(CCC)CCc1c[nH]c2ccc(F)cc12 [compound 35, N-(2-(5-fluoro-1H-indol-3-yl)ethyl)-N-propylprop-2-en-1-amine]
5-HT2A pKi ± SEM [1]: 6.38 ± 0.29

CCCN(CC)CCc1c[nH]c2cc(Cl)c(F)cc12 [compound 37, N-(2-(6-chloro-5-fluoro-1H-indol-3-yl)ethyl)-N-ethylpropan-1-amine]
5-HT2A pKi ± SEM [1]: 6.04 ± 0.05

CC(C)CN(C)CCc1c[nH]c2ccc(F)cc12 [compound 39, N-(2-(5-fluoro-1H-indol-3-yl)ethyl)-N,2-dimethylpropan-1-amine]
5-HT2A pKi ± SEM [1]: 6.12

CCCN(CC)CCc1c[nH]c2c(F)cc(F)cc12 [compound 72, N-[2-(5,7-difluoro-1H-indol-3-yl)ethyl]-N-ethylpropan-1-amine]
5-HT2A pKi ± SEM [1]: 6.30 ± 0.06

CCCN(CC)CCc1c[nH]c2c(F)c(F)ccc12 [compound 82, N-(2-(6,7-difluoro-1H-indol-3-yl)ethyl)-N-ethylpropan-1-amine]
5-HT2A pKi ± SEM [1]: 6.52 | EC50 [2]: 10.5 nM | 5-HT2A-Ca2+ FLUX Emax (% 5-HT) ([2]; IA = Inactive, N=1-3): 90.4 ± 0.7 % 5-HT | EC50 [3]: 66.1 nM | 5-HT2B-Ca2+ FLUX Emax (% 5-HT) ([3]; IA = Inactive, N=1-3): 86.3 ± 0.8 % 5-HT | EC50 [4]: 195 nM | 5-HT2C-Ca2+ FLUX Emax (% 5-HT) [4]: 89.6 ± 1.7 % 5-HT

CCC(C)N(CCc1c[nH]c2ccc(F)cc12)C1CCC1 (stereo not shown) [compound 158, N-(sec-butyl)-N-(2-(5-fluoro-1H-indol-3-yl)ethyl)cyclobutanamine]
5-HT2A pKi ± SEM [1]: 6.08 ± 0.15

CN(CCc1c[nH]c2ccc(F)cc12)C1CC1 [compound 160, N-(2-(5-fluoro-1H-indol-3-yl)ethyl)-N-methylcyclopropanamine]
5-HT2A pKi ± SEM [1]: 7.41 ± 0.33

CCCN(CCc1c[nH]c2ccc(F)cc12)C1CC1 [compound 161, N-[2-(5-fluoro-1H-indol-3-yl)ethyl]-N-propylcyclopropanamine]
5-HT2A pKi ± SEM [1]: 6.50

CCCN(CCc1c[nH]c2c(F)cccc12)C1CCC1 [compound 162, N-(2-(7-fluoro-1H-indol-3-yl)ethyl)-N-propylcyclobutanamine]
5-HT2A pKi ± SEM [1]: 5.91

CCCN(CCc1c[nH]c2c(F)cccc12)C(C)CC (stereo not shown) [compound 163, N-[2-(7-fluoro-1H-indol-3-yl)ethyl]-N-propylbutan-2-amine]
5-HT2A pKi ± SEM [1]: 5.65 ± 0.004

CCCN(CC)CCc1c[nH]c2c(F)c(F)c(F)cc12 [compound 165, N-ethyl-N-[2-(5,6,7-trifluoro-1H-indol-3-yl)ethyl]propan-1-amine]
5-HT2A pKi ± SEM [1]: 6.69 | EC50 [2]: 4.57 nM | 5-HT2A-Ca2+ FLUX Emax (% 5-HT) ([2]; IA = Inactive, N=1-3): 103.0 ± 0.8 % 5-HT | EC50 [3]: 7.41 nM | 5-HT2B-Ca2+ FLUX Emax (% 5-HT) ([3]; IA = Inactive, N=1-3): 102.4 ± 0.8 % 5-HT | EC50 [4]: 38.9 nM | 5-HT2C-Ca2+ FLUX Emax (% 5-HT) [4]: 102.8 ± 1.7 % 5-HT

CCN(C)CCc1c[nH]c2c(C)cc(F)cc12 [compound 169, N-ethyl-2-(5-fluoro-7-methyl-1H-indol-3-yl)-N-methylethan-1-amine]
5-HT2A pKi ± SEM [1]: 6.05

CCC(C)N(CCc1c[nH]c2ccc(F)cc12)C1CC1 (stereo not shown) [compound 172, N-(sec-butyl)-N-(2-(5-fluoro-1H-indol-3-yl)ethyl)cyclopropanamine]
5-HT2A pKi ± SEM [1]: 6.47 | EC50 [2]: 3.98 nM | 5-HT2A-Ca2+ FLUX Emax (% 5-HT) ([2]; IA = Inactive, N=1-3): 94.0 ± 0.6 % 5-HT | EC50 [3]: 6.46 nM | 5-HT2B-Ca2+ FLUX Emax (% 5-HT) ([3]; IA = Inactive, N=1-3): 93.5 ± 0.8 % 5-HT | EC50 [4]: 151 nM | 5-HT2C-Ca2+ FLUX Emax (% 5-HT) [4]: 82.3 ± 1.7 % 5-HT

Fc1ccc2[nH]cc(CCN(C3CCC3)C3CC3)c2c1 [compound 173, N-cyclopropyl-N-(2-(5-fluoro-1H-indol-3-yl)ethyl)cyclobutanamine]
5-HT2A pKi ± SEM [1]: 6.58 | EC50 [2]: 7.24 nM | 5-HT2A-Ca2+ FLUX Emax (% 5-HT) ([2]; IA = Inactive, N=1-3): 87.4 ± 0.7 % 5-HT | EC50 [3]: 17.8 nM | 5-HT2B-Ca2+ FLUX Emax (% 5-HT) ([3]; IA = Inactive, N=1-3): 82.8 ± 0.8 % 5-HT | EC50 [4]: 302 nM | 5-HT2C-Ca2+ FLUX Emax (% 5-HT) [4]: 80.4 ± 1.2 % 5-HT

CCN(C)CCc1c[nH]c2c(Br)cc(F)cc12 [compound 174, 2-(7-bromo-5-fluoro-1H-indol-3-yl)-N-ethyl-N-methylethan-1-amine]
5-HT2A pKi ± SEM [1]: 6.42 | EC50 [2]: 18.6 nM | 5-HT2A-Ca2+ FLUX Emax (% 5-HT) ([2]; IA = Inactive, N=1-3): 38.2 ± 1.4 % 5-HT | EC50 [4]: 13.2 nM | 5-HT2C-Ca2+ FLUX Emax (% 5-HT) [4]: 39.9 ± 1.1 % 5-HT

CCN(C)CCc1c[nH]c2cc(C)c(F)cc12 [compound 175, N-ethyl-2-(5-fluoro-6-methyl-1H-indol-3-yl)-N-methylethan-1-amine]
5-HT2A pKi ± SEM [1]: 5.96 | EC50 [2]: 6.76 nM | 5-HT2A-Ca2+ FLUX Emax (% 5-HT) ([2]; IA = Inactive, N=1-3): 48.6 ± 2.8 % 5-HT | EC50 [4]: 102 nM | 5-HT2C-Ca2+ FLUX Emax (% 5-HT) [4]: 51.2 ± 2.0 % 5-HT

C#CCN(CCc1c[nH]c2ccc(F)cc12)C(C)CC (stereo not shown) [compound 176, N-(2-(5-fluoro-1H-indol-3-yl)ethyl)-N-(prop-2-yn-1-yl)butan-2-amine]
5-HT2A pKi ± SEM [1]: 5.89 | EC50 [2]: 40.7 nM | 5-HT2A-Ca2+ FLUX Emax (% 5-HT) ([2]; IA = Inactive, N=1-3): 97.8 ± 1.1 % 5-HT | EC50 [3]: 28.8 nM | 5-HT2B-Ca2+ FLUX Emax (% 5-HT) ([3]; IA = Inactive, N=1-3): 103.0 ± 0.6 % 5-HT | EC50 [4]: 191 nM | 5-HT2C-Ca2+ FLUX Emax (% 5-HT) [4]: 99.6 ± 1.5 % 5-HT

CCC(C)N(CC#N)CCc1c[nH]c2ccc(F)cc12 (stereo not shown) [compound 177, 2-(sec-butyl(2-(5-fluoro-1H-indol-3-yl)ethyl)amino)acetonitrile]
5-HT2A pKi ± SEM [1]: 5.71

CCCN(CC#N)CCc1c[nH]c2c(F)cccc12 [compound 181, 2-((2-(7-fluoro-1H-indol-3-yl)ethyl)(propyl)amino)acetonitrile]
5-HT2A pKi ± SEM [1]: 5.75 | 5-HT2A-Ca2+ FLUX Emax (% 5-HT) ([2]; IA = Inactive, N=1-3): 68.7 ± 1.7 % 5-HT | EC50 ([2]; IA = Inactive, N=1-3, read-out: 5-HT2A-Ca2+ FLUX pEC50 (converted)): 58.9 nM | 5-HT2B-Ca2+ FLUX Emax (% 5-HT) ([3]; IA = Inactive, N=1-3): 36.8 ± 0.7 % 5-HT | EC50 ([3]; IA = Inactive, N=1-3, read-out: 5-HT2B-Ca2+ FLUX pEC50 (converted)): 295 nM

CCN(C)CCc1c[nH]c2c(Cl)cc(F)cc12 [compound 182, 2-(7-chloro-5-fluoro-1H-indol-3-yl)-N-ethyl-N-methylethan-1-amine]
5-HT2A pKi ± SEM [1]: 6.62

CCCN1CCC[C@@H]1Cc1c[nH]c2ccc(F)cc12 [compound 184, (R)-5-fluoro-3-((1-propylpyrrolidin-2-yl)methyl)-1H-indole]
5-HT2A pKi ± SEM [1]: 6.60

CN1CCC[C@@H]1Cc1c[nH]c2cc(F)c(F)cc12 [compound 185, (R)-5,6-difluoro-3-((1-methylpyrrolidin-2-yl)methyl)-1H-indole]
5-HT2A pKi ± SEM [1]: 6.90

CN1CCC[C@@H]1Cc1c[nH]c2c(F)cccc12 [compound 186, (R)-7-fluoro-3-((1-methylpyrrolidin-2-yl)methyl)-1H-indole]
5-HT2A pKi ± SEM [1]: 6.47
